Tests used:
Format in all cases: functional
HOP-62 = assay: Cytotoxicity against Homo sapiens (human) HOP62 cells assessed as growth inhibition at 10 uM after 48 hr by coulter counter analysis; conditions: HOP-62, 48 h, read-out: GI
UACC-62 = assay: Cytotoxicity against Homo sapiens (human) UACC62 cells assessed as growth inhibition at 10 uM after 48 hr by coulter counter analysis; conditions: UACC-62, 48 h, read-out: GI
HT-29 = assay: Cytotoxicity against Homo sapiens (human) HT-29 cells assessed as growth inhibition at 10 uM after 48 hr by coulter counter analysis; conditions: HT-29, 48 h, read-out: GI
SK-MEL-2 = assay: Cytotoxicity against Homo sapiens (human) SK-MEL-2 cells assessed as growth inhibition at 10 uM after 48 hr by coulter counter analysis; conditions: SK-MEL-2, 48 h, read-out: GI
CCRF-CEM = assay: Cytotoxicity against Homo sapiens (human) CCRF-CEM cells assessed as growth inhibition at 10 uM after 48 hr by coulter counter analysis; conditions: read-out: GI
EKVX = assay: Cytotoxicity against Homo sapiens (human) EKVX cells assessed as growth inhibition at 10 uM after 48 hr by coulter counter analysis; conditions: read-out: GI
NCI-H522 = assay: Cytotoxicity against Homo sapiens (human) NCI-H522 cells assessed as growth inhibition at 10 uM after 48 hr by coulter counter analysis; conditions: NCI-H522, 48 h, read-out: GI
SK-OV-3 = assay: Cytotoxicity against Homo sapiens (human) SKOV3 cells assessed as growth inhibition at 10 uM after 48 hr by coulter counter analysis; conditions: SK-OV-3, 48 h, read-out: GI
[1] = Cytotoxicity against Homo sapiens (human) NCI-ADR-RES cells assessed as growth inhibition at 10 uM after 48 hr by coulter counter analysis; conditions: read-out: GI
NCI-H226 = assay: Cytotoxicity against Homo sapiens (human) NCI-H226 cells assessed as growth inhibition at 10 uM after 48 hr by coulter counter analysis; conditions: NCI-H226, 48 h, read-out: GI
SK-MEL-5 = assay: Cytotoxicity against Homo sapiens (human) SK-MEL-5 cells assessed as growth inhibition at 10 uM after 48 hr by coulter counter analysis; conditions: SK-MEL-5, 48 h, read-out: GI
Malme-3M = assay: Cytotoxicity against Homo sapiens (human) MALME-3M cells assessed as growth inhibition at 10 uM after 48 hr by coulter counter analysis; conditions: read-out: GI
A498 = assay: Cytotoxicity against Homo sapiens (human) A498 cells assessed as growth inhibition at 10 uM after 48 hr by coulter counter analysis; conditions: A498, 48 h, read-out: GI
UO-31 = assay: Cytotoxicity against Homo sapiens (human) UO31 cells assessed as growth inhibition at 10 uM after 48 hr by coulter counter analysis; conditions: UO-31, 48 h, read-out: GI
ACHN = assay: Cytotoxicity against Homo sapiens (human) ACHN cells assessed as growth inhibition at 10 uM after 48 hr by coulter counter analysis; conditions: read-out: GI
786-0 = assay: Cytotoxicity against Homo sapiens (human) 786-0 cells assessed as growth inhibition at 10 uM after 48 hr by coulter counter analysis; conditions: 786-0, 48 h, read-out: GI
HCT-15 = assay: Cytotoxicity against Homo sapiens (human) HCT15 cells assessed as growth inhibition at 10 uM after 48 hr by coulter counter analysis; conditions: HCT-15, 48 h, read-out: GI
SF-268 = assay: Cytotoxicity against Homo sapiens (human) SF268 cells assessed as growth inhibition at 10 uM after 48 hr by coulter counter analysis; conditions: SF-268, 48 h, read-out: GI
SW-620 = assay: Cytotoxicity against Homo sapiens (human) SW620 cells assessed as growth inhibition at 10 uM after 48 hr by coulter counter analysis; conditions: SW-620, 48 h, read-out: GI
CAKI-1 = assay: Cytotoxicity against Homo sapiens (human) Caki1 cells assessed as growth inhibition at 10 uM after 48 hr by coulter counter analysis; conditions: CAKI-1, 48 h, read-out: GI
PC-3 = assay: Cytotoxicity against Homo sapiens (human) PC3 cells assessed as growth inhibition at 10 uM after 48 hr by coulter counter analysis; conditions: PC-3, 48 h, read-out: GI
HL-60(TB) = assay: Cytotoxicity against Homo sapiens (human) HL-60(TB) cells assessed as growth inhibition at 10 uM after 48 hr by coulter counter analysis; conditions: HL-60, 48 h, read-out: GI
SNB-75 = assay: Cytotoxicity against Homo sapiens (human) SNB75 cells assessed as growth inhibition at 10 uM after 48 hr by coulter counter analysis; conditions: SNB-75, 48 h, read-out: GI
KM12 = assay: Cytotoxicity against Homo sapiens (human) KM12 cells assessed as growth inhibition at 10 uM after 48 hr by coulter counter analysis; conditions: KM12, 48 h, read-out: GI

| Structure (SMILES) | inhibition of growth at 10 µM (HOP-62) [%] | inhibition of growth at 10 µM (UACC-62) [%] | inhibition of growth at 10 µM (HT-29) [%] | inhibition of growth at 10 µM (SK-MEL-2) [%] | inhibition of growth at 10 µM (CCRF-CEM) [%] | inhibition of growth at 10 µM (EKVX) [%] | inhibition of growth at 10 µM (NCI-H522) [%] | inhibition of growth at 10 µM (SK-OV-3) [%] | inhibition of growth at 10 µM [1] [%] | inhibition of growth at 10 µM (NCI-H226) [%] | inhibition of growth at 10 µM (SK-MEL-5) [%] | inhibition of growth at 10 µM (Malme-3M) [%] | inhibition of growth at 10 µM (A498) [%] | inhibition of growth at 10 µM (UO-31) [%] | inhibition of growth at 10 µM (ACHN) [%] | inhibition of growth at 10 µM (786-0) [%] | inhibition of growth at 10 µM (HCT-15) [%] | inhibition of growth at 10 µM (SF-268) [%] | inhibition of growth at 10 µM (SW-620) [%] | inhibition of growth at 10 µM (CAKI-1) [%] | further results |
| --- | --- | --- | --- | --- | --- | --- | --- | --- | --- | --- | --- | --- | --- | --- | --- | --- | --- | --- | --- | --- | --- |
| COc1ccc(C2C3=C(CCCC3)Nc3nn[nH]c(=O)c32)cc1OC (stereo not drawn) | 15.7 | 14.3 | < 10 | < 10 | < 10 | < 10 | < 10 | < 10 | < 10 | 15.9 | 10.9 | < 10 | 13.2 | 48.6 | 16 | < 10 | < 10 | < 10 | < 10 | 23.4 | inhibition of growth at 10 µM (PC-3): 13.4%; inhibition of growth at 10 µM (HL-60(TB)): < 10%; inhibition of growth at 10 µM (SNB-75): 28.3%; inhibition of growth at 10 µM (KM12): < 10% |
| COc1ccc(C2C3=C(CCCC3)Nc3[nH]c(=S)nc(NC(N)=S)c32)cc1OC (stereo not drawn) | 25.4 | < 10 | < 10 | 12.6 | < 10 | < 10 | 43.4 | 18.6 | 11.7 | 18.6 | 25.5 | 10.9 | < 10 | 43.5 | 11.4 | < 10 | 10.2 | < 10 | < 10 | 10 | inhibition of growth at 10 µM (PC-3): 23.5%; inhibition of growth at 10 µM (HL-60(TB)): < 10%; inhibition of growth at 10 µM (SNB-75): 20.3%; inhibition of growth at 10 µM (KM12): 21.3% |
| COc1ccc(C2C3=C(CCCC3)Nc3nc(CC#N)[nH]c(=O)c32)cc1OC (stereo not drawn) | < 10 | < 10 | < 10 | < 10 | < 10 | < 10 | < 10 | < 10 | < 10 | 11.3 | < 10 | < 10 | < 10 | 26.9 | < 10 | < 10 | < 10 | < 10 | < 10 | < 10 | inhibition of growth at 10 µM (PC-3): < 10%; inhibition of growth at 10 µM (HL-60(TB)): < 10%; inhibition of growth at 10 µM (SNB-75): < 10%; inhibition of growth at 10 µM (KM12): < 10% |
| O=c1[nH]c(-c2ccccc2)nc2c1C(c1ccc(Cl)cc1)C1=C(CCCC1)N2 (stereo not drawn) | < 10 | < 10 | < 10 | < 10 | < 10 | < 10 | 20.2 | < 10 | < 10 | 12.3 | 17.8 | < 10 | 11.4 | 43.3 | < 10 | < 10 | < 10 | < 10 | < 10 | < 10 | inhibition of growth at 10 µM (PC-3): < 10%; inhibition of growth at 10 µM (HL-60(TB)): < 10%; inhibition of growth at 10 µM (SNB-75): 15.5%; inhibition of growth at 10 µM (KM12): < 10% |
| COc1ccc(C2C3=C(CCCC3)Nc3nc(-c4ccccc4)[nH]c(=O)c32)cc1OC (stereo not drawn) | 15.7 | 14.4 | < 10 | < 10 | < 10 | < 10 | 14.5 | < 10 | < 10 | 15.9 | 10.9 | < 10 | 13.2 | 48.6 | 18 | < 10 | < 10 | < 10 | < 10 | 23.4 | inhibition of growth at 10 µM (PC-3): 13.5%; inhibition of growth at 10 µM (HL-60(TB)): < 10%; inhibition of growth at 10 µM (SNB-75): 28.4%; inhibition of growth at 10 µM (KM12): < 10% |
| COc1ccc(-c2nc3c(c(=O)[nH]2)C(c2ccc(OC)c(OC)c2)C2=C(CCCC2)N3)cc1OC (stereo not drawn) | 12.3 | < 10 | < 10 | < 10 | 11.7 | < 10 | 25.8 | < 10 | < 10 | 13.3 | 18.6 | < 10 | < 10 | 66.3 | 28.8 | < 10 | 10.7 | 12.2 | < 10 | 13.5 | inhibition of growth at 10 µM (PC-3): 17.1%; inhibition of growth at 10 µM (HL-60(TB)): < 10%; inhibition of growth at 10 µM (SNB-75): 22.6%; inhibition of growth at 10 µM (KM12): < 10% |
| Clc1ccc(C2C3=C(CCCC3)Nc3ncn4nc(-c5ccccc5)nc4c32)cc1 (stereo not drawn) | 16 | 13.4 | 14.4 | < 10 | < 10 | < 10 | 23.5 | < 10 | < 10 | 15.2 | < 10 | < 10 | 20.6 | 40 | < 10 | < 10 | 10.2 | < 10 | < 10 | 12.4 | inhibition of growth at 10 µM (PC-3): 19.7%; inhibition of growth at 10 µM (HL-60(TB)): < 10%; inhibition of growth at 10 µM (SNB-75): 10.5%; inhibition of growth at 10 µM (KM12): < 10% |
